As a reminder, the IC50 is the concentration needed to halve the response being measured.

The nature of data set [1]: In vitro simulated gastrointestinal digestion (pepsin, trypsin): digestibility / digestion stability. The format is in vitro ADME. The following applies: stability under digestion conditions in vitro; pepsin pH 2.0 37°C 2 h, then trypsin pH 8.0 37°C 2 h as described for the hydrolysate; mean ± spread. The method, then:
In vitro digestion simulation was performed based on the method of Hao et al. ([24]). Broccoli protein suspension (5%, w/v) was hydrolyzed with papain (1%, E/S ratio) for 6 h (pH 7.0, 55°C). After hydrolysis, inactivated at 100°C for 10 min and cooled to 25°C. Based on the method of Hao et al. ([24]), the simulated digestion of broccoli papain hydrolysate was conducted. In short, 0.1 g pepsin (pH = 2.0) was mixed with the hydrolysate and placed at 37°C for 2 h. Then 0.2 g trypsin (pH = 8.0) was added and incubated at 37°C for 2 h. After enzymatic hydrolysis, the enzyme was inactivated at 95°C for 10 min, cooled to 25°C, and the supernatant was collected. Subsequently, freeze-dried broccoli crude peptide was applied to the determination of ACEI activity.
The crude protein hydrolysis of broccoli was analyzed by high performance liquid chromatography (Agilent 1260, California, USA). The Column was XBridge Peptides BEH C18 Column 130A, 4.6 × 250 mm, 5 μm (Waters, Massachusetts, USA). Column temperature: 37°C. Flow rate: 1 mL/min. Sample size: 100 μL. Mobile phase: 0.1% trifluoroacetic acid aqueous solution (phase A) and pure acetonitrile (phase B). Detection wavelengths: 214 and 280 nm. Elution gradient: 0–5 min, 100%A/0%B; 5–25 min, 60%A/40%B; 25–26 min, 20%A/80%B; 26–31 min, 20%A/80%B; 31–32 min, 100%A/0%B; 32–37 min, 100%A/0%B.

Data set [2] has as its target T1, Angiotensin converting enzyme (ACE) (Homo sapiens, UniProt P12821).
T1 construct: purchased Sigma–Aldrich (Shanghai) Trading Co., Ltd
The data set is described as follows: ACE inhibitory (ACEI) activity, HHL substrate, HPLC detection of hippuric acid. The format is biochemical. To be noted: synthetic peptides; HHL 5 mM, ACE 0.025 U/mL, 37°C 60 min, HPLC 228 nm. The protocol:
Eighty microlitres of HHL solution (5 mM) and 30 μL of sample mixture were incubated at 37°C for 5 min. Then, 40 μL of ACE solution (0.025 U/mL) was added to the mixture, followed by incubation at 37°C for 60 min. The reaction was terminated by adding 120 μL of 1 M HCl. After the addition of 700 μL of pure water, the mixture was filtered through a 0.22 μm membrane ([25]). The experiment included four groups: a control group (pure water), a negative control group (blank digestion solution), a positive control group (protein mixture), and a sample group (protein digestion solution). In the control group, HCl was added immediately after ACE.
Chromatograms were recorded via an Agilent instrument (Agilent, California, USA). Column: CAPCELL CORE AQ C18, 4.6 × 150 mm, 5 μm (Shiseido, Tokyo, Japan). Column temperature: 30°C. Flow rate: 1 mL/min. The injection volume was 100 μL. Mobile phase: 0.1% trifluoroacetic acid aqueous solution (A) and pure acetonitrile (B). Detection wavelength: 228 nm. Elution gradient: 0–10 min, 80% A/20% B. The calculation method was as follows:
Inhibitionrate(%)=[PA]c-[PA]s/[PA]c-[PA]b×100%
where [PA]c, [PA]s, and [PA]b represented the peak area of HA at 228 nm of the control group, experimental group, and blank group, respectively.

For data set [3], the system named is VSMCs. Briefly: Western blot of protein expression in VSMCs (Ang II-induced or high glucose). The format is cell-based, Sprague–Dawley rats. The following applies: for ACE expression / expression of PCNA, MMP2, Bcl2 and Bax: VSMCs in high glucose (HG) + peptide. The method, then: (§1) Thoracic aortas from male Sprague–Dawley rats (250–300 g) were dispersed in HBSS solution, which contained 1 mg/mL collagenase II (146 U/mg, Worthington Biochemical Corp., Freehold, NJ) and 0.5 mg/mL elastase I (32 U/mg, Worthington Biochemical Corp., Freehold, NJ). The mixture was digested for 90 min to obtain the appropriate VSMCs. The obtained VSMCs were subsequently cultured in DMEM supplemented with 10% FBS, 2 mmol/L glutamine, and 1 g/L D-glucose at 37°C in a humidified atmosphere of 5% CO2. The purity of the VSMCs was evaluated by the smooth muscle cell-specific marker SM22α (>97% for the stained cells). All the VSMCs used for the experiments were between the 3rd and 8th passages.
Protein was extracted with RIPA buffer. Equal amounts of protein were separated via 8–10% SDS–PAGE (ACE, Changzhou, China) and then transferred to 0.22 μm PVDF membranes (Millipore, Bedford, MA, USA). The membranes were blocked with 5% skim milk and incubated overnight with the appropriate primary antibodies. HRP-conjugated secondary antibodies were then applied for binding and visualization through Western blot luminol reagent. Densitometry quantification was performed with ImageJ-V1.8.0.
(In general: Immunoblotting shows a protein as a band on a membrane.)

In another data set the test system is Ang II. The data set is described as follows: Ang II level in VSMCs cultured in high glucose (ELISA). The data set is classed as cell-based, Sprague–Dawley rats. The following applies: high glucose (HG) + peptide. The protocol: as §1
The cells (2 × 10^4 cells per well) were first seeded into 24-well plates overnight. The supernatants were collected to measure the expression levels of Ang II via angiotensin II ELISA kits (ER1637, FineTest, Wuhan, China) according to the manufacturer's protocol. The absorbance of each well at 450 nm was determined via a multimode plate reader (BioTek Epoch2, Santa Clara, US).
On the technique in general: In an ELISA, binding on a coated surface is turned into a signal by an enzyme label.

Data set [4] has as its system VSMCs. The data set is described as follows: CCK-8 cell viability of VSMCs in high glucose. The format is cell-based, Sprague–Dawley rats. To be noted: high glucose (HG); for VSMC proliferation / viability: peptides 0.0313-0.5 mg/mL. The method, then:
as §1
The cells (4 × 10^3 cells/well) were seeded into 96-well plates and cultured overnight. The cells were subjected to serum deprivation for 24 h. Then, the culture mixture was removed, and 100 μL of free FBS culture mixture was added to the above culture mixture. Ten microliters of CCK-8 solution was added to each well. The plates were read with a BioTek Epoch 2 Microplate Spectrophotometer (Agilent Technologies, California, USA). The experiment was organized into seven groups, which included a normal group, a high glucose group, and peptide segments: HLEVR, LTEVR, LEHGF, HLVNK, and LLDGR. These segments were tested at concentrations of 0.0313, 0.0625, 0.125, 0.25, and 0.5 mg/mL.

The next data set relates to Caco-2 cells. Briefly: Caco-2 cell monolayer transport model (absorption simulation). The data set is classed as in vitro ADME. To be noted: Caco-2 monolayer integrity marker, 12-well inserts, TEER 468.09 ± 37.54 Ω/cm^2. The protocol:
Caco-2 cells were obtained from the Cell Bank of the Chinese Academy of Sciences. The cells were cultured in Dulbecco's modified Eagle's medium (DMEM) supplemented with 20% FBS and 1% penicillin/streptomycin (P/S) at 37°C and 5% CO2 in a humidified incubator.
Caco-2 cells were seeded in each chamber of a 12-well plate, which was equipped with cell culture inserts ([26]). The transepithelial electrical resistance (TEER) across the monolayer was measured every 2 days via a cell resistance meter (RE1600, Beijing Jegon Instrumentation Co., Ltd.). The integrity of the cell monolayer was assessed with fluorescein isothiocyanate (FITC). TEER values > 350 Ω/cm^2 were considered to indicate successful construction and validation of the Caco-2 cell transport model. The FITC permeability was < 5 × 10^−[…], indicating the integrity of the cell monolayer.
Broccoli protease hydrolysate was added to the apical (AP) side. After 120 min, the media from both the AP and basolateral (BL) sides were collected for subsequent analysis. The wells without cells or samples served as the control group, whereas the wells without samples served as the blank group.

Entries after “also recorded” stand apart in the source; their conditions may differ. Where no end group is shown, it is not given here.

T1 sequence (P12821 30-1306, species assumed): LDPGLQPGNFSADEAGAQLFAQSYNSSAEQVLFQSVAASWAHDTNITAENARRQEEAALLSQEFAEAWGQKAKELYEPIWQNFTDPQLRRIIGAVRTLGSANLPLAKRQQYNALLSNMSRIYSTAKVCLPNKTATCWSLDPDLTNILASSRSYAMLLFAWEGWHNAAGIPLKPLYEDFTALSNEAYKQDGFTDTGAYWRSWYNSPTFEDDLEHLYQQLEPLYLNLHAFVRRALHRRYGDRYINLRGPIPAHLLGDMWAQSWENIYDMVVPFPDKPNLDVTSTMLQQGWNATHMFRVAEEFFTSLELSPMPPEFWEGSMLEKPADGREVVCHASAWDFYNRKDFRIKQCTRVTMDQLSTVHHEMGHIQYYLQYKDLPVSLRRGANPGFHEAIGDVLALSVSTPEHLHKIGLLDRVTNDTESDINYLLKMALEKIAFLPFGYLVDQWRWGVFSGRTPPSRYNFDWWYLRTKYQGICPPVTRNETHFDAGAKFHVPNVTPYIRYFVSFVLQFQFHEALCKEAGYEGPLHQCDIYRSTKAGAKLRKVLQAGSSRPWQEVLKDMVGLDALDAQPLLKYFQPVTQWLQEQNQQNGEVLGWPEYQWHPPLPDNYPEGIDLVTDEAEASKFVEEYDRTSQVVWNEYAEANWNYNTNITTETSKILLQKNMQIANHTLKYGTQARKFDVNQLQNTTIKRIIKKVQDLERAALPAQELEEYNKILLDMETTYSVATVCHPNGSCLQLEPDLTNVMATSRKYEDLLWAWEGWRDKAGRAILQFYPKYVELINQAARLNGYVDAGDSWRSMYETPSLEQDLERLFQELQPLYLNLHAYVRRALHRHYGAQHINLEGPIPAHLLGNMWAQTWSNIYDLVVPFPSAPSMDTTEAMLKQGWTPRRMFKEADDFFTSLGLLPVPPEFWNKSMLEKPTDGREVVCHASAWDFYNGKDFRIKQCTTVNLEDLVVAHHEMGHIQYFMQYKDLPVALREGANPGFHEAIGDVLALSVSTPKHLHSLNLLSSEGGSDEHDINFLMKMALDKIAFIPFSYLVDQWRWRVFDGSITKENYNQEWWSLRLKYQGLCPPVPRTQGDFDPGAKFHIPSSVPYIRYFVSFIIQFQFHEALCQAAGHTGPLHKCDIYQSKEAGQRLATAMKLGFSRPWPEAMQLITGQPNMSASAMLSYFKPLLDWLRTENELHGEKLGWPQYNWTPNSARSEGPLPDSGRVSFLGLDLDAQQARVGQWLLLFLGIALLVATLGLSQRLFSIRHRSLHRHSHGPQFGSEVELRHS

For the substance HLEVR [HLEVR], in data set [1], the “Digestion stability (%)” value was 94.27 ± 2.64%. In addition, the IC50 in data set [2] is 3.19 ± 0.23 mM.

Consider HLVNK [HLVNK], for which, in the data set on VSMCs [3], the ACE expression entry is “modulated ACE expression”; the “expression of PCNA, MMP2, Bcl2 and Bax” value is listed as “significantly restored the expression of these proteins”. Besides, the “Ang II levels in VSMCs” value in the data set on Ang II was “significantly inhibit intracellular Ang II levels”. Besides, the “Ang II levels in VSMCs” value in the data set with Ang II (listed as HLLVNK) is “significantly reduced Ang II levels”. In addition, the “Digestion stability (%)” value in data set [1] is reported as 95.78 ± 3.73%. In addition, in the data set on VSMCs [4], the “VSMC proliferation / viability” value is listed as “effectively reduce VSMC viability”. Moreover, half-maximal inhibition in data set [2] (IC50) required 0.06 ± 0.01 mM.

On to LEHGF [LEHGF], for which the “Digestion stability (%)” value in data set [1] is on record as 97.85 ± 6.31%. The IC50 in data set [2] is 0.64 ± 0.02 mM.

Substance LLDGR [LLDGR] came in with an IC50 in data set [2] of 2.81 ± 0.12 mM.

As for LTEVR [LTEVR], in the data set with VSMCs [3], the ACE expression entry is recorded as “modulated ACE expression”; the “expression of PCNA, MMP2, Bcl2 and Bax” value is “significantly restored the expression of these proteins”. Further, the “Ang II levels in VSMCs” value in the data set with Ang II is on record as “significantly reduced Ang II levels; also recorded: significantly inhibit intracellular Ang II levels”. In addition, in data set [1], the “Digestion stability (%)” value is 98.82 ± 3.92%. In addition, the “cell viability of VSMCs” value in the data set on VSMCs [4] (peptide 0.5 mg/mL) is on record as “not significant”. In addition, the “VSMC proliferation / viability” value in the data set on VSMCs [4] is listed as “effectively reduce VSMC viability”. 17.1 ± 1.37 mM corresponded to half-maximal inhibition in data set [2] (IC50).

In the case of “angiotensin II (DRVYIHPF; Angiotensin-2; UniProt P01019 25-32, looked up) [Ang II, angiotensin II, used to induce VSMC dysfunction]”, in the data set on VSMCs [3] (VSMCs treated with Ang II), the “downregulation of ACE2 expression” value is reported as 15.60 ± 0.028%, the “upregulation of ACE expression” value turned out to be 136.50 ± 0.017%, the “upregulation of AT1R expression” value is given as 27.31 ± 0.020% and the “upregulation of BCL2 expression” value turned out to be 40.26 ± 0.051%. For the same substance, in the data set on VSMCs [3] (VSMCs treated with Ang II), the “upregulation of ERK1/2/Total ERK” value was determined as 128.17 ± 0.028%, the “upregulation of MMP2 expression” value is listed as 14.97 ± 0.044%, the “upregulation of PCNA expression” value worked out at 49.56 ± 0.01% and the “upregulation of pp38/Total p38” value turned out to be 14.58 ± 0.041%.

As for lucifer yellow, the “apparent permeability coefficient (Papp)” value in the data set with Caco-2 cells was 2.87 ± 0.53 × 10^−7 cm^2/s.

These data come from publication PMC11807808, “In vitro gastrointestinal digestion simulation screening of novel ACEI peptides from broccoli: mechanism in high glucose-induced VSMCs dysfunction” (Frontiers in Nutrition, 2025).
